Laboratory results: PubChem BioAssay (NCI)
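Grown in 96-well plates, cells were treated for 48 hours with each compound at five concentrations. Insufficient inhibition: endpoint recorded as highest concentration tested. GI50 is the concentration that inhibits growth by half. The concentration for full growth arrest is given as TGI.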

How the values were obtained:
Experiment in all cases: NCI tumour cell line growth inhibition, 48 h
786-0 renal = test system: 786-0 renal
A498 renal = test system: A498 renal
A549 NSCLC = test system: A549 NSCLC
ACHN renal = test system: ACHN renal
BT-549 breast = test system: BT-549 breast
CAKI-1 renal = test system: CAKI-1 renal
CCRF-CEM leukemia = test system: CCRF-CEM leukemia
COLO 205 colon = test system: COLO 205 colon
DU-145 prostate = test system: DU-145 prostate
EKVX NSCLC = test system: EKVX NSCLC
HCC-2998 colon = test system: HCC-2998 colon
HCT-116 colon = test system: HCT-116 colon
HCT-15 colon = test system: HCT-15 colon
HL-60(TB) leukemia = test system: HL-60(TB) leukemia
HOP-62 NSCLC = test system: HOP-62 NSCLC
HOP-92 NSCLC = test system: HOP-92 NSCLC
HS 578T breast = test system: HS 578T breast
HT29 colon = test system: HT29 colon
IGROV1 ovarian = test system: IGROV1 ovarian
K-562 leukemia = test system: K-562 leukemia
KM12 colon = test system: KM12 colon
LOX IMVI melanoma = test system: LOX IMVI melanoma
M14 melanoma = test system: M14 melanoma
MALME-3M melanoma = test system: MALME-3M melanoma
MCF7 breast = test system: MCF7 breast
MDA-MB-231 breast = test system: MDA-MB-231 breast
MDA-MB-435 = test system: MDA-MB-435
MOLT-4 leukemia = test system: MOLT-4 leukemia
NCI-H226 lung = test system: NCI-H226 lung
NCI-H23 lung = test system: NCI-H23 lung
NCI-H460 lung = test system: NCI-H460 lung
NCI-H522 lung = test system: NCI-H522 lung
NCI/ADR-RES ovarian = test system: NCI/ADR-RES ovarian
OVCAR-3 ovarian = test system: OVCAR-3 ovarian
OVCAR-4 ovarian = test system: OVCAR-4 ovarian
OVCAR-5 ovarian = test system: OVCAR-5 ovarian
OVCAR-8 ovarian = test system: OVCAR-8 ovarian
PC-3 prostate = test system: PC-3 prostate
RPMI-8226 leukemia = test system: RPMI-8226 leukemia
RXF 393 renal = test system: RXF 393 renal
SF-268 CNS = test system: SF-268 CNS
SF-295 CNS = test system: SF-295 CNS
SF-539 CNS = test system: SF-539 CNS
SK-MEL-2 melanoma = test system: SK-MEL-2 melanoma
SK-MEL-28 melanoma = test system: SK-MEL-28 melanoma
SK-MEL-5 melanoma = test system: SK-MEL-5 melanoma
SK-OV-3 ovarian = test system: SK-OV-3 ovarian
SN12C renal = test system: SN12C renal
SNB-19 CNS = test system: SNB-19 CNS
SNB-75 CNS = test system: SNB-75 CNS
SR leukemia = test system: SR leukemia
SW-620 colon = test system: SW-620 colon
T-47D breast = test system: T-47D breast
TK-10 renal = test system: TK-10 renal
U251 CNS = test system: U251 CNS
UACC-257 melanoma = test system: UACC-257 melanoma
UACC-62 melanoma = test system: UACC-62 melanoma
UO-31 renal = test system: UO-31 renal

SMILES: O=C1/C(=C/c2ccc(Cl)cc2)COc2ccc(O)cc21
- GI50 (786-0 renal): 2.04 µM
- TGI (786-0 renal): 4.58 µM
- GI50 (A498 renal): 13.9 µM
- TGI (A498 renal): 27.7 µM
- GI50 (A549 NSCLC): 9.28 µM
- TGI (A549 NSCLC): 30.7 µM
- GI50 (ACHN renal): 2.39 µM
- TGI (ACHN renal): 5.68 µM
- GI50 (BT-549 breast): 3.34 µM
- TGI (BT-549 breast): 11.5 µM
- GI50 (CAKI-1 renal): 2.02 µM
- TGI (CAKI-1 renal): 5.3 µM
- GI50 (CCRF-CEM leukemia): 0.291 µM
- TGI (CCRF-CEM leukemia): 1.82 µM
- GI50 (COLO 205 colon): 1.86 µM
- TGI (COLO 205 colon): 4.63 µM
- GI50 (DU-145 prostate): 3.69 µM
- TGI (DU-145 prostate): 13 µM
- GI50 (EKVX NSCLC): 7.31 µM
- TGI (EKVX NSCLC): 20.4 µM
- GI50 (HCC-2998 colon): 1.82 µM
- TGI (HCC-2998 colon): 3.33 µM
- GI50 (HCT-116 colon): 1.61 µM
- TGI (HCT-116 colon): 3.08 µM
- GI50 (HCT-15 colon): 1.84 µM
- TGI (HCT-15 colon): 4.04 µM
- GI50 (HL-60(TB) leukemia): 1.36 µM
- TGI (HL-60(TB) leukemia): 4.36 µM
- GI50 (HOP-62 NSCLC): 6.31 µM
- TGI (HOP-62 NSCLC): 22.5 µM
- GI50 (HOP-92 NSCLC): 8.84 µM
- TGI (HOP-92 NSCLC): 37.6 µM
- GI50 (HS 578T breast): 3.22 µM
- TGI (HS 578T breast): 18.1 µM
- GI50 (HT29 colon): 2.67 µM
- TGI (HT29 colon): 6.61 µM
- GI50 (IGROV1 ovarian): 1.67 µM
- TGI (IGROV1 ovarian): 3.31 µM
- GI50 (K-562 leukemia): 2.55 µM
- TGI (K-562 leukemia): 25.8 µM
- GI50 (KM12 colon): 2.04 µM
- TGI (KM12 colon): 4.46 µM
- GI50 (LOX IMVI melanoma): 1.74 µM
- TGI (LOX IMVI melanoma): 3.18 µM
- GI50 (M14 melanoma): 2.33 µM
- TGI (M14 melanoma): 6.31 µM
- GI50 (MALME-3M melanoma): 2.37 µM
- TGI (MALME-3M melanoma): 6.08 µM
- GI50 (MCF7 breast): 1.41 µM
- TGI (MCF7 breast): 2.96 µM
- GI50 (MDA-MB-231 breast): 2.73 µM
- TGI (MDA-MB-231 breast): 8.62 µM
- GI50 (MDA-MB-435): 2.77 µM
- TGI (MDA-MB-435): 8.2 µM
- GI50 (MOLT-4 leukemia): 1.84 µM
- TGI (MOLT-4 leukemia): 8.23 µM
- GI50 (NCI-H226 lung): 2.68 µM
- TGI (NCI-H226 lung): 7.61 µM
- GI50 (NCI-H23 lung): 2.21 µM
- TGI (NCI-H23 lung): 5.16 µM
- GI50 (NCI-H460 lung): 3.32 µM
- TGI (NCI-H460 lung): 11.2 µM
- GI50 (NCI-H522 lung): 1.72 µM
- TGI (NCI-H522 lung): 3.5 µM
- GI50 (NCI/ADR-RES ovarian): 2.99 µM
- TGI (NCI/ADR-RES ovarian): 9.13 µM
- GI50 (OVCAR-3 ovarian): 1.84 µM
- TGI (OVCAR-3 ovarian): 3.55 µM
- GI50 (OVCAR-4 ovarian): 3.83 µM
- TGI (OVCAR-4 ovarian): 16.3 µM
- GI50 (OVCAR-5 ovarian): 2.44 µM
- TGI (OVCAR-5 ovarian): 6.81 µM
- GI50 (OVCAR-8 ovarian): 3 µM
- TGI (OVCAR-8 ovarian): 11 µM
- GI50 (PC-3 prostate): 2.15 µM
- TGI (PC-3 prostate): 5.14 µM
- GI50 (RPMI-8226 leukemia): 0.302 µM
- TGI (RPMI-8226 leukemia): 0.905 µM
- GI50 (RXF 393 renal): 1.83 µM
- TGI (RXF 393 renal): 3.45 µM
- GI50 (SF-268 CNS): 3.29 µM
- TGI (SF-268 CNS): 16.7 µM
- GI50 (SF-295 CNS): 14.5 µM
- TGI (SF-295 CNS): 30 µM
- GI50 (SF-539 CNS): 1.8 µM
- TGI (SF-539 CNS): 3.56 µM
- GI50 (SK-MEL-2 melanoma): 12.3 µM
- TGI (SK-MEL-2 melanoma): 28.5 µM
- GI50 (SK-MEL-28 melanoma): 2.07 µM
- TGI (SK-MEL-28 melanoma): 4.33 µM
- GI50 (SK-MEL-5 melanoma): 2.32 µM
- TGI (SK-MEL-5 melanoma): 5.37 µM
- GI50 (SK-OV-3 ovarian): 14 µM
- TGI (SK-OV-3 ovarian): 44.5 µM
- GI50 (SN12C renal): 1.86 µM
- TGI (SN12C renal): 4.22 µM
- GI50 (SNB-19 CNS): 2.16 µM
- TGI (SNB-19 CNS): 5.18 µM
- GI50 (SNB-75 CNS): 12.5 µM
- TGI (SNB-75 CNS): 26.3 µM
- GI50 (SR leukemia): 0.663 µM
- TGI (SR leukemia): 5.3 µM
- GI50 (SW-620 colon): 1.87 µM
- TGI (SW-620 colon): 4.26 µM
- GI50 (T-47D breast): 2.22 µM
- TGI (T-47D breast): 5.59 µM
- GI50 (TK-10 renal): 3.33 µM
- TGI (TK-10 renal): 13.4 µM
- GI50 (U251 CNS): 1.52 µM
- TGI (U251 CNS): 2.84 µM
- GI50 (UACC-257 melanoma): 3.16 µM
- TGI (UACC-257 melanoma): 13 µM
- GI50 (UACC-62 melanoma): 2.23 µM
- TGI (UACC-62 melanoma): 5.46 µM
- GI50 (UO-31 renal): 1.61 µM
- TGI (UO-31 renal): 3.99 µM
